Experimental data published in ChEMBL document CHEMBL1201862, “PubChem BioAssay data set” (2004).
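Cells were grown in 96-well plates and exposed to each compound for 48 hours at five concentrations; endpoints were interpolated linearly between bracketing concentrations, or set to the highest concentration if not reached. GI50 is the concentration that inhibits growth by half.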 Activity calls are given as the source filed them. Rule as the data show it: active = GI50 up to about 1.1 µM and inactive = higher.

Columns and labels:
Test in all cases: NCI-60 cell line screen, 48 h
[1] = test system: UO-31
[2] = test system: SNB-19
[3] = test system: UACC-257
[4] = test system: 786-0
[5] = test system: SN12C
[6] = test system: IGROV-1
[7] = test system: CCRF-CEM
[8] = test system: SNB-75
[9] = test system: NCI-H522
[10] = test system: NCI-H226
[11] = test system: RXF 393
[12] = test system: SK-MEL-2
[13] = test system: SK-OV-3
[14] = test system: OVCAR-5
[15] = test system: HL-60
[16] = test system: RPMI-8226
[17] = test system: MOLT-4

SMILES	GI50 [1]	GI50 [2]	GI50 [3]	GI50 [4]	GI50 [5]	GI50 [6]	GI50 [7]	GI50 [8]	GI50 [9]	GI50 [10]	GI50 [11]	GI50 [12]	GI50 [13]	GI50 [14]	GI50 [15]	GI50 [16]	GI50 [17]
Nc1nc[n+](Cc2ccccc2)c2ncn(Cc3ccccc3)c12	39.3 µM (inactive)	> 100 µM (inactive)	63.8 µM (inactive)	> 100 µM (inactive)	> 100 µM (inactive)	> 100 µM (inactive)	> 100 µM (inactive)	34.9 µM (inactive)	81.3 µM (inactive)	> 100 µM (inactive)	20.2 µM (inactive)	> 100 µM (inactive)	> 100 µM (inactive)	> 100 µM (inactive)	32.3 µM (inactive)	–	–
O=C(N/N=C(/c1nc2ccc([N+](=O)[O-])cc2[nH]c1=O)C(O)c1ccc([N+](=O)[O-])cc1)c1ccncc1 (stereo not drawn)	> 100 µM (inactive)	–	> 100 µM (inactive)	> 100 µM (inactive)	> 100 µM (inactive)	> 100 µM (inactive)	16.3 µM (inactive)	> 100 µM (inactive)	6.64 µM (inactive)	> 100 µM (inactive)	–	> 100 µM (inactive)	> 100 µM (inactive)	> 100 µM (inactive)	26.4 µM (inactive)	> 100 µM (inactive)	> 100 µM (inactive)
CO[C@@H]1C=C[C@@]23c4cc5c(cc4C(=O)O[C@H]2CN(C)[C@H]3C1)OCO5	> 100 µM (inactive)	> 100 µM (inactive)	> 100 µM (inactive)	> 100 µM (inactive)	> 100 µM (inactive)	> 100 µM (inactive)	> 100 µM (inactive)	81.7 µM (inactive)	> 100 µM (inactive)	–	> 100 µM (inactive)	> 100 µM (inactive)	> 100 µM (inactive)	> 100 µM (inactive)	> 100 µM (inactive)	> 100 µM (inactive)	> 100 µM (inactive)
C=C(Br)C(C)(Br)CCC(Br)C(C)(C)Br (stereo not drawn)	60.7 µM (inactive)	–	36.8 µM (inactive)	22.5 µM (inactive)	21.6 µM (inactive)	19.7 µM (inactive)	15 µM (inactive)	28.3 µM (inactive)	14.7 µM (inactive)	35.3 µM (inactive)	46.6 µM (inactive)	24.5 µM (inactive)	40.7 µM (inactive)	35.5 µM (inactive)	23.1 µM (inactive)	21.7 µM (inactive)	24.3 µM (inactive)
O=C1/C(=C\c2ccccc2)c2ccccc2N1/N=C\c1ccccc1	> 100 µM (inactive)	> 100 µM (inactive)	> 100 µM (inactive)	81.5 µM (inactive)	> 100 µM (inactive)	> 100 µM (inactive)	49.2 µM (inactive)	29 µM (inactive)	–	> 100 µM (inactive)	–	> 100 µM (inactive)	> 100 µM (inactive)	> 100 µM (inactive)	–	57.3 µM (inactive)	22.5 µM (inactive)
C[N+](C)(C)CC(=O)N/N=C(/Cc1nc2ccc(Cl)cc2nc1O)C1=NS(=O)(=O)c2cc(S(N)(=O)=O)c(Cl)cc2N1	> 100 µM (inactive)	> 100 µM (inactive)	> 100 µM (inactive)	> 100 µM (inactive)	> 100 µM (inactive)	> 100 µM (inactive)	> 100 µM (inactive)	–	> 100 µM (inactive)	–	> 100 µM (inactive)	> 100 µM (inactive)	> 100 µM (inactive)	> 100 µM (inactive)	> 100 µM (inactive)	> 100 µM (inactive)	> 100 µM (inactive)
O=C1OC2C=CC1C1(CCOC1=O)C2 (stereo not drawn)	> 100 µM (inactive)	> 100 µM (inactive)	> 100 µM (inactive)	> 100 µM (inactive)	> 100 µM (inactive)	48.8 µM (inactive)	> 100 µM (inactive)	46.8 µM (inactive)	> 100 µM (inactive)	> 100 µM (inactive)	–	> 100 µM (inactive)	–	> 100 µM (inactive)	> 100 µM (inactive)	> 100 µM (inactive)	> 100 µM (inactive)
COc1ccccc1/C=C(\NC(=O)c1ccccc1)c1nc2ccc(Cl)cc2[nH]1	18 µM (inactive)	29.5 µM (inactive)	32.7 µM (inactive)	27.4 µM (inactive)	35.2 µM (inactive)	26.9 µM (inactive)	21.7 µM (inactive)	22.4 µM (inactive)	15.6 µM (inactive)	23.3 µM (inactive)	22.4 µM (inactive)	25.6 µM (inactive)	37.2 µM (inactive)	38 µM (inactive)	–	9.64 µM (inactive)	15.2 µM (inactive)
O=C1N=C2Sc3ccc4ccccc4c3N2C1=O	16 µM (inactive)	20.4 µM (inactive)	28.1 µM (inactive)	19.8 µM (inactive)	20.3 µM (inactive)	19.1 µM (inactive)	31.3 µM (inactive)	23.6 µM (inactive)	–	22.1 µM (inactive)	20.2 µM (inactive)	26.4 µM (inactive)	15.5 µM (inactive)	50.7 µM (inactive)	43.6 µM (inactive)	> 100 µM (inactive)	44.4 µM (inactive)
CC1(C)COC(C23C4C5C2C2C3C4C52I)=N1 (stereo not drawn)	> 100 µM (inactive)	> 100 µM (inactive)	> 100 µM (inactive)	> 100 µM (inactive)	> 100 µM (inactive)	> 100 µM (inactive)	> 100 µM (inactive)	–	–	> 100 µM (inactive)	> 100 µM (inactive)	–	> 100 µM (inactive)	> 100 µM (inactive)	–	> 100 µM (inactive)	> 100 µM (inactive)
CCOC(=O)C1C(=O)c2cccc(OC)c2C2COC(=O)N12 (stereo not drawn)	> 100 µM (inactive)	> 100 µM (inactive)	> 100 µM (inactive)	> 100 µM (inactive)	> 100 µM (inactive)	> 100 µM (inactive)	> 100 µM (inactive)	> 100 µM (inactive)	> 100 µM (inactive)	> 100 µM (inactive)	> 100 µM (inactive)	> 100 µM (inactive)	> 100 µM (inactive)	> 100 µM (inactive)	> 100 µM (inactive)	> 100 µM (inactive)	> 100 µM (inactive)
c1ccc(SC(CCCCC(Sc2ccccc2)Sc2ccccc2)Sc2ccccc2)cc1	> 100 µM (inactive)	> 100 µM (inactive)	> 100 µM (inactive)	> 100 µM (inactive)	> 100 µM (inactive)	–	> 100 µM (inactive)	> 100 µM (inactive)	–	–	> 100 µM (inactive)	> 100 µM (inactive)	> 100 µM (inactive)	–	> 100 µM (inactive)	> 100 µM (inactive)	> 100 µM (inactive)
O=c1[nH]nc(-c2ccccc2)c(-c2ccccc2)c1-n1nc(-c2ccccc2)c2ccccc2c1=O	71.8 µM (inactive)	–	> 100 µM (inactive)	> 100 µM (inactive)	> 100 µM (inactive)	> 100 µM (inactive)	27.9 µM (inactive)	> 100 µM (inactive)	34 µM (inactive)	> 100 µM (inactive)	–	69 µM (inactive)	> 100 µM (inactive)	> 100 µM (inactive)	–	32 µM (inactive)	17 µM (inactive)
CCCCCCCCCCCCCC(=O)OCC1OC(OC)C(NC(=O)N(CCCl)N=O)C(O)C1O (stereo not drawn)	22.6 µM (inactive)	18.5 µM (inactive)	14.2 µM (inactive)	2.59 µM (inactive)	25.5 µM (inactive)	29.6 µM (inactive)	10.3 µM (inactive)	8.89 µM (inactive)	> 10 µM (inactive)	24.8 µM (inactive)	16.4 µM (inactive)	38.1 µM (inactive)	–	25.6 µM (inactive)	–	11.4 µM (inactive)	2.06 µM (inactive)
Cc1ccc(NC(=O)C(=O)C(C(=O)/C=C/c2ccccc2)C2OC(=O)c3ccccc32)c(C)c1 (stereo not drawn)	> 100 µM (inactive)	> 100 µM (inactive)	> 100 µM (inactive)	> 100 µM (inactive)	> 100 µM (inactive)	> 100 µM (inactive)	> 100 µM (inactive)	> 100 µM (inactive)	> 100 µM (inactive)	> 100 µM (inactive)	> 100 µM (inactive)	–	> 100 µM (inactive)	> 100 µM (inactive)	> 100 µM (inactive)	60.4 µM (inactive)	77.4 µM (inactive)
CC1/C=C/[C@@]2(C)CCC(C(C)(C)O)C2C(O)C[C@](C)(O)/C=C/C1 (stereo partly drawn)	> 100 µM (inactive)	> 100 µM (inactive)	> 100 µM (inactive)	21.7 µM (inactive)	> 100 µM (inactive)	> 100 µM (inactive)	> 100 µM (inactive)	> 100 µM (inactive)	–	7.31 µM (inactive)	> 100 µM (inactive)	> 100 µM (inactive)	> 100 µM (inactive)	> 100 µM (inactive)	86.1 µM (inactive)	> 100 µM (inactive)	> 100 µM (inactive)
COc1cc2c(c(OC)c1OC)-c1ccc(SC)c(=O)cc1[C@@H](NCc1cccc([N+](=O)[O-])c1)CC2	0.0366 µM (active)	< 0.01 µM (active)	< 0.01 µM (active)	< 0.01 µM (active)	< 0.01 µM (active)	< 0.01 µM (active)	< 0.01 µM (active)	11.1 µM (inactive)	< 0.01 µM (active)	< 0.01 µM (active)	< 0.01 µM (active)	< 0.01 µM (active)	< 0.01 µM (active)	> 100 µM (inactive)	< 0.01 µM (active)	–	< 0.01 µM (active)
COc1ccc2oc(-c3ccc(OC)c(OC)c3OC)cc(=O)c2c1	–	18.9 µM (inactive)	55.6 µM (inactive)	72.4 µM (inactive)	53.3 µM (inactive)	83.9 µM (inactive)	35.2 µM (inactive)	48.3 µM (inactive)	18.8 µM (inactive)	10.5 µM (inactive)	22.4 µM (inactive)	22.9 µM (inactive)	> 100 µM (inactive)	28.4 µM (inactive)	18.6 µM (inactive)	17 µM (inactive)	–
